Experimental data as given in patent US20120184556A1, “SUBSTITUTED ENZOIMIDAZOLESULFONAMIDES AND SUBSTITUTED INDOLESULFONAMIDES AS MGLUR4 POTENTIATORS” (priority 2009, published 2012).

Biological target: T1, human mGluR4 (Homo sapiens, UniProt Q14833)
T1 construct: expressed in transfected cells; host or cells: Chinese Hamster Ovary (CHO) cells
Assay: human mGluR4 potentiation assay, CHO cells, Fluo-4 calcium fluorescence, agonist EC20
Assay type: cell-based
Conditions: for Emax: CHO, maximum extent of potentiation, human mGluR4, read-out: GluMax; for EC50: potentiation of human mGluR4 response to EC20 agonist, read-out: hEC50
Procedure: The disclosed compounds and compositions can be evaluated for their ability to act as a potentiator of metabotropic glutamate receptor activity, in particular mGluR4 activity, by any suitable known methodology known in the art. For example, Chinese Hamster Ovary (CHO) cells transfected with human mGluR4 or HEK cells co-transfected with rat mGluR4 and the G-protein regulated Inwardly Rectifying Potassium channel (GIRK) were plated in clear bottom assay plates for assay in a Hamamatsu FDSS Fluorometric Plate Reader. The cells were loaded with either the Ca2+-sensitive fluorescent dye Fluo-4 or the thallium responsive dye BTC, AM and the plates were washed and placed into a suitable kinetic plate reader. For human mGluR4 assays, a fluorescence baseline was established for 3-5 seconds, the disclosed compounds were then added to the cells, and the response in cells was measured. Approximately two and a half minutes later, a concentration of mGluR4 agonist (e.g. glutamate or L-AP4) eliciting approximately 20% (EC20) of the maximal agonist response was added to the cells, and the response was measured. Two minutes later, a concentration of mGluR4 agonist (e.g. glutamate or L-AP4) eliciting 80% (EC80) of the maximal agonist response was added to the cells, and the response was measured. For rat mGluR4/GIRK experiments, a baseline was established for approximately five seconds, disclosed compounds were added, and either an EC20 or EC80 concentration of agonist was added approximately two and one half minutes later. Potentiation of the agonist response of mGluR4 by the disclosed compounds was observed as an increase in response to the EC20 concentration of agonist in the presence of compound compared to the response to agonist in the absence of compound. Similarly, antagonism of the agonist response of mGluR4 by the disclosed compounds was observed as a decrease in response to the EC80 concentration of agonist in the presence of compound compared to the response to agonist in the absence of compound.
The above described assay operated in two modes. In the first mode, a range of concentrations of the disclosed compounds are added to cells, followed by a single fixed concentration of agonist. If the compound acts as a potentiatior, an EC50 value for potentiation and a maximum extent of potentiation by the compound at this concentration of agonist is determined by non-linear curve fitting. If the compound acts as a noncompetitive antagonist, an IC50 value is determined by non-linear curve fitting. In the second mode, several fixed concentrations of the disclosed compounds are added to various wells on a plate, followed by a range in concentrations of agonist for each concentration of disclosed compound. The EC50 values for the agonist at each concentration of compound are determined by non-linear curve fitting. A decrease in the EC50 value of the agonist with increasing concentrations of the sample compound (a leftward shift of the agonist concentration-response curve) is an indication of the degree of mGluR4 potentiation at a given concentration of the sample compound. A decrease in the maximal response of the agonist with increasing concentrations of the sample compounds, with or without a rightward shift in agonist potency, is an indication of the degree of noncompetitive antagonism at mGluR4. The second mode also indicates whether the sample compounds also affect the maximum response to mGluR4 to agonists.

T1 sequence (Q14833 33-912): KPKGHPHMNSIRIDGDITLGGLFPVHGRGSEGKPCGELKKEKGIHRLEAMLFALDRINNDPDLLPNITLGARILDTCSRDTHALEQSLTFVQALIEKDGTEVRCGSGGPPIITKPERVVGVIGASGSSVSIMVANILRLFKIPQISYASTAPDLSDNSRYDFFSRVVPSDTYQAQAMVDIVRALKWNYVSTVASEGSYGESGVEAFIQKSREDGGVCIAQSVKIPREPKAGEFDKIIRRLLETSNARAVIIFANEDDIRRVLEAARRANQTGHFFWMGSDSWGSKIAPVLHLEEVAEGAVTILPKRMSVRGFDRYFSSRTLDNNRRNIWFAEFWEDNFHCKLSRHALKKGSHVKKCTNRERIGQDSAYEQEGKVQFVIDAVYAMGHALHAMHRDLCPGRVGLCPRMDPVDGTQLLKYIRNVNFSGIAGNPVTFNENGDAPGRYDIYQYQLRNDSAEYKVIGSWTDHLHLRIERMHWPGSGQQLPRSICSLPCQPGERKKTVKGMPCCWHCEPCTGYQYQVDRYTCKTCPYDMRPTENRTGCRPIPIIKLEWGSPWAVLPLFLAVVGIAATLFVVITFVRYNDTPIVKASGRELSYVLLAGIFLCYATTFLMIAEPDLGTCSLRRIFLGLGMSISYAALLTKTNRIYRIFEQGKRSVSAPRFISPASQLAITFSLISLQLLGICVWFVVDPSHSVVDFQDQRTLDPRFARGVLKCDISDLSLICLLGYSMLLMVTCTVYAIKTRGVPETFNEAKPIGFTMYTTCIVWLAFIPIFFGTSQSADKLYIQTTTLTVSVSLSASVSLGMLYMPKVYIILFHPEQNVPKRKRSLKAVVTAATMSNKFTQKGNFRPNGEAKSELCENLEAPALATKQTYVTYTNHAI

Emax [%] | EC50 [nM] | SMILES
61 | 1110 | CN(c1ccccc1F)S(=O)(=O)c1ccc2[nH]c(-c3ccccn3)nc2c1 [Example 50, N-(2-fluorophenyl)-N-methyl-2-(pyridin-2-yl)-1H-benzo[d]imidazole-5-sulfonamide]
252 | 99 | O=S(=O)(Nc1ccc(F)cc1F)c1ccc2[nH]c(-c3ccccn3)nc2c1 [Example 51, N-(2,4-difluorophenyl)-2-(pyridin-2-yl)-1H-benzo[d]imidazole-5-sulfonamide]
226 | 140 | O=S(=O)(Nc1ccc(F)cc1F)c1ccc2[nH]c(-c3cccc(F)n3)nc2c1 [Example 52, N-(2,4-difluorophenyl)-2-(6-fluoropyridin-2-yl)-1H-benzo[d]imidazole-5-sulfonamide]
59 | > 10000 | CN1CCCCC1c1nc2cc(S(=O)(=O)Nc3ccccc3Cl)ccc2[nH]1 (centres unmarked) [Example 53, N-(2-chlorophenyl)-2-(1-methylpiperidin-2-yl)-1H-benzo[d]imidazole-5-sulfonamide]
